{"source": "paper PMC11010885", "about": "“Functional Analysis and Tissue-Specific Expression of Calcitonin and CGRP with RAMP-Modulated Receptors CTR and CLR in Chickens” (Animals : an Open Access Journal from MDPI, 2024)", "origin": "cited, not measured here", "system": "RAMP1- and RAMP3-derived amylin receptors", "conditions": "ref [51],[53]; cited from earlier work", "method": "In mammals, CTR functions as a receptor for three distinct hormones: CT, CGRP, and amylin (not explored in this study). The specific affinity spectrum is determined by its co-expression with RAMPs. Although CTR alone is a receptor for CT that is involved in bone homeostasis, CTRs in complex with RAMP1–3 are high-affinity receptors for amylin, a peptide involved in the regulation of food intake. […] The CTR + RAMP1 complex is a ...", "data": [{"substance": "rat amylin: rat amylin, cited from the literature", "values": [{"measurement": "affinity", "result": "moderate affinity"}]}]}
